Assays:
[1] = test system: rape; assay: Test B pre/postemergence rape; format: in vivo, Brassica napus
Procedure, shortened: (§1)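 Test chemicals in a non-phytotoxic solvent mixture with surfactant were sprayed preemergence onto planted seeds and postemergence onto plants 2 to 18 cm tall (1- to 4-leaf stage). After twelve to sixteen days in a greenhouse, injury was visually rated against untreated controls from 0 (no effect) to 10 (complete control).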

[2] = test system: duck salad; assay: Test B flood test duck salad; format: in vivo, Heteranthera limosa
Procedure, shortened: (§2)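 Plants were grown to the 2-leaf stage before treatment with test chemical, then held in a greenhouse for twelve to sixteen days. Injury was visually rated against untreated controls on a 0–10 scale, where 0 is no effect and 10 is complete control.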

[3] = test system: bedstraw; assay: Test B pre/postemergence bedstraw; format: in vivo, Galium aparine
Procedure, shortened: as §1

[4] = test system: pigweed; assay: Test B pre/postemergence pigweed; format: in vivo, Amaranthus retroflexus
Procedure, shortened: as §1

[5] = test system: soybean; assay: Test B pre/postemergence soybean; format: in vivo, Glycine max
Procedure, shortened: as §1

[6] = test system: wild oat; assay: Test B pre/postemergence wild oat; format: in vivo, Avena fatua
Procedure, shortened: as §1

[7] = test system: corn; assay: Test B pre/postemergence corn; format: in vivo, Zea mays
Procedure, shortened: as §1

[8] = test system: cocklebur; assay: Test B pre/postemergence cocklebur; format: in vivo, Xanthium strumarium
Procedure, shortened: as §1

[9] = test system: purple nutsedge; assay: Test B pre/postemergence purple nutsedge; format: in vivo, Cyperus rotundus
Procedure, shortened: as §1

[10] = test system: wheat; assay: Test B pre/postemergence wheat; format: in vivo, Triticum aestivum
Procedure, shortened: as §1

[11] = test system: crabgrass; assay: Test B pre/postemergence crabgrass; format: in vivo, Digitaria sanguinalis
Procedure, shortened: as §1

[12] = test system: rice; assay: Test B flood test rice; format: in vivo, Oryza sativa
Procedure, shortened: as §2

[13] = test system: morningglory; assay: Test B pre/postemergence morningglory; format: in vivo, Ipomoea hederacea
Procedure, shortened: as §1

[14] = test system: smallflower flatsedge; assay: Test B flood test smallflower flatsedge; format: in vivo, Cyperus difformis
Procedure, shortened: as §2

[15] = test system: giant foxtail; assay: Test B pre/postemergence giant foxtail; format: in vivo, Setaria faberii
Procedure, shortened: as §1

[16] = test system: velvetleaf; assay: Test B pre/postemergence velvetleaf; format: in vivo, Abutilon theophrasti
Procedure, shortened: as §1

[17] = Preemergence, Rate 62 g/ha, scale of 0 to 10 where 0 is no effect and 10 is complete control
[18] = Preemergence, Rate 250 g/ha, scale of 0 to 10 where 0 is no effect and 10 is complete control
[19] = Preemergence, Rate 500 g/ha, scale of 0 to 10 where 0 is no effect and 10 is complete control
[20] = Rate 62 g/ha, Postemergence, scale of 0 to 10 where 0 is no effect and 10 is complete control
[21] = Rate 125 g/ha, Postemergence, scale 0 to 10
[22] = Rate 125 g/ha, Preemergence, scale of 0 to 10 where 0 is no effect and 10 is complete control
[23] = Rate 500 g/ha, Postemergence, scale 0 to 10, 0 no effect, 10 complete control
[24] = Rate 62 g/ha, headed Pre-emergence (flood test species), scale 0 to 10 (0 no effect, 10 complete control)
[25] = Rate 125 g/ha, Pre-emergence, flood test species, scale 0 to 10 where 0 is no effect and 10 is complete control
[26] = Rate 250 g/ha, Pre-emergence, flood-test species, scale 0 to 10, 0 is no effect, 10 is complete control
[27] = Rate 500 g/ha, Pre-emergence, flood test species, scale 0 to 10 (0 no effect, 10 complete control)

Q: With `Cc1ccccc1-n1c(=O)on(C(=O)N(c2ccc(C(C)C)cc2)C(C)C)c1=O` [Compound 231] as the compound, how does the “Rape plant response rating” value [1, 17] read?
A: 0

Q: What about the “Rape plant response rating” value [1, 18] of the same compound?
A: 0

Q: And the “Plant response rating, Rape” value [1, 19]?
A: 0

Q: What about the “Rape plant response rating” value [1, 20] of the same compound?
A: 0

Q: What about the “Rape plant response rating” value [1, 21] of the same compound?
A: 0

Q: What about the “Rape plant response rating” value [1, 22] of the same compound?
A: 0

Q: What about the “Plant response rating (0 to 10; 0 is no effect, 10 is complete control), Rape” value ([1]; Rate 250 g/ha, Postemergence) of the same compound?
A: 0

Q: What about the “Rape plant response rating” value [1, 23] of the same compound?
A: 0

Q: And the “Ducksalad plant response rating” value [2, 24]?
A: 0

Q: And the “Ducksalad plant response rating” value [2, 25]?
A: 0

Q: And the “Ducksalad plant response rating” value [2, 26]?
A: 0

Q: What about the “Ducksalad plant response rating” value [2, 27] of the same compound?
A: 0

Q: What about the “Bedstraw plant response rating” value [3, 17] of the same compound?
A: 0

Q: And the “Bedstraw plant response rating” value [3, 18]?
A: 0

Q: And the “Plant response rating, Bedstraw” value [3, 19]?
A: 0

Q: What about the “Bedstraw plant response rating” value [3, 20] of the same compound?
A: 0

Q: And the “Bedstraw plant response rating” value [3, 21]?
A: 0

Q: And the “Bedstraw plant response rating” value [3, 22]?
A: 0

Q: And the “Plant response rating (0 to 10; 0 is no effect, 10 is complete control), Bedstraw” value ([3]; Rate 250 g/ha, Postemergence)?
A: 0

Q: What about the “Bedstraw plant response rating” value [3, 23] of the same compound?
A: 0

Q: What about the “Redroot pigweed plant response rating” value [4, 17] of the same compound?
A: 0

Q: And the “Redroot pigweed plant response rating” value [4, 18]?
A: 0

Q: What about the “Plant response rating, Redroot pigweed” value [4, 19] of the same compound?
A: 0

Q: What about the “Redroot pigweed plant response rating” value [4, 20] of the same compound?
A: 0

Q: What about the “Redroot pigweed plant response rating” value [4, 21] of the same compound?
A: 0

Q: What about the “Redroot pigweed plant response rating” value [4, 22] of the same compound?
A: 0

Q: What about the “Plant response rating (0 to 10; 0 is no effect, 10 is complete control), Redroot pigweed” value ([4]; Rate 250 g/ha, Postemergence) of the same compound?
A: 0

Q: What about the “Redroot pigweed plant response rating” value [4, 23] of the same compound?
A: 0

Q: What about the “Soybean plant response rating” value [5, 17] of the same compound?
A: 0

Q: What about the “Soybean plant response rating” value [5, 18] of the same compound?
A: 0

Q: And the “Plant response rating, Soybean” value [5, 19]?
A: 0

Q: What about the “Soybean plant response rating” value [5, 20] of the same compound?
A: 0

Q: And the “Soybean plant response rating” value [5, 21]?
A: 1

Q: What about the “Soybean plant response rating” value [5, 22] of the same compound?
A: 0

Q: And the “Plant response rating (0 to 10; 0 is no effect, 10 is complete control), Soybean” value ([5]; Rate 250 g/ha, Postemergence)?
A: 1

Q: What about the “Soybean plant response rating” value [5, 23] of the same compound?
A: 1

Q: What about the “Wild oats plant response rating” value [6, 17] of the same compound?
A: 0

Q: What about the “Wild oats plant response rating” value [6, 18] of the same compound?
A: 0

Q: What about the “Plant response rating, Wild oats” value [6, 19] of the same compound?
A: 0

Q: What about the “Wild oats plant response rating” value [6, 20] of the same compound?
A: 0

Q: And the “Wild oats plant response rating” value [6, 21]?
A: 0

Q: And the “Wild oats plant response rating” value [6, 22]?
A: 0

Q: What about the “Plant response rating (0 to 10; 0 is no effect, 10 is complete control), Wild oats” value ([6]; Rate 250 g/ha, Postemergence) of the same compound?
A: 0

Q: What about the “Wild oats plant response rating” value [6, 23] of the same compound?
A: 0

Q: And the “Corn plant response rating” value [7, 17]?
A: 0

Q: And the “Corn plant response rating” value [7, 18]?
A: 0

Q: And the “Plant response rating, Corn” value [7, 19]?
A: 0

Q: And the “Corn plant response rating” value [7, 20]?
A: 0

Q: What about the “Corn plant response rating” value [7, 21] of the same compound?
A: 0

Q: What about the “Corn plant response rating” value [7, 22] of the same compound?
A: 0

Q: And the “Plant response rating (0 to 10; 0 is no effect, 10 is complete control), Corn” value ([7]; Rate 250 g/ha, Postemergence)?
A: 0

Q: And the “Corn plant response rating” value [7, 23]?
A: 0

Q: And the “Cocklebur plant response rating” value [8, 17]?
A: 0

Q: And the “Cocklebur plant response rating” value [8, 18]?
A: 0

Q: What about the “Plant response rating, Cocklebur” value [8, 19] of the same compound?
A: 0

Q: What about the “Cocklebur plant response rating” value [8, 20] of the same compound?
A: 0

Q: What about the “Cocklebur plant response rating” value [8, 21] of the same compound?
A: 0

Q: What about the “Cocklebur plant response rating” value [8, 22] of the same compound?
A: 0

Q: What about the “Plant response rating (0 to 10; 0 is no effect, 10 is complete control), Cocklebur” value ([8]; Rate 250 g/ha, Postemergence) of the same compound?
A: 0

Q: And the “Cocklebur plant response rating” value [8, 23]?
A: 0

Q: And the “Nutsedge plant response rating” value [9, 17]?
A: 0

Q: What about the “Nutsedge plant response rating” value [9, 18] of the same compound?
A: 0

Q: And the “Plant response rating, Nutsedge” value [9, 19]?
A: 0

Q: What about the “Nutsedge plant response rating” value [9, 20] of the same compound?
A: 0

Q: And the “Nutsedge plant response rating” value [9, 21]?
A: 0

Q: And the “Nutsedge plant response rating” value [9, 22]?
A: 0

Q: And the “Plant response rating (0 to 10; 0 is no effect, 10 is complete control), Nutsedge” value ([9]; Rate 250 g/ha, Postemergence)?
A: 0

Q: What about the “Nutsedge plant response rating” value [9, 23] of the same compound?
A: 0

Q: And the “Wheat plant response rating” value [10, 17]?
A: 0

Q: And the “Wheat plant response rating” value [10, 18]?
A: 0

Q: And the “Plant response rating, Wheat” value [10, 19]?
A: 0

Q: What about the “Wheat plant response rating” value [10, 20] of the same compound?
A: 0

Q: What about the “Wheat plant response rating” value [10, 21] of the same compound?
A: 0

Q: What about the “Wheat plant response rating” value [10, 22] of the same compound?
A: 0

Q: What about the “Plant response rating (0 to 10; 0 is no effect, 10 is complete control), Wheat” value ([10]; Rate 250 g/ha, Postemergence) of the same compound?
A: 0

Q: And the “Wheat plant response rating” value [10, 23]?
A: 0

Q: What about the “Crabgrass plant response rating” value [11, 17] of the same compound?
A: 0

Q: What about the “Crabgrass plant response rating” value [11, 18] of the same compound?
A: 0

Q: And the “Plant response rating, Crabgrass” value [11, 19]?
A: 7

Q: And the “Crabgrass plant response rating” value [11, 20]?
A: 0

Q: And the “Crabgrass plant response rating” value [11, 21]?
A: 0

Q: And the “Crabgrass plant response rating” value [11, 22]?
A: 0

Q: And the “Plant response rating (0 to 10; 0 is no effect, 10 is complete control), Crabgrass” value ([11]; Rate 250 g/ha, Postemergence)?
A: 0

Q: What about the “Crabgrass plant response rating” value [11, 23] of the same compound?
A: 2

Q: What about the “Rice plant response rating” value [12, 24] of the same compound?
A: 0

Q: And the “Rice plant response rating” value [12, 25]?
A: 0

Q: What about the “Rice plant response rating” value [12, 26] of the same compound?
A: 0

Q: What about the “Rice plant response rating” value [12, 27] of the same compound?
A: 0

Q: What about the “Morningglory plant response rating” value [13, 17] of the same compound?
A: 0

Q: And the “Morningglory plant response rating” value [13, 18]?
A: 0

Q: What about the “Plant response rating, Morningglory” value [13, 19] of the same compound?
A: 6

Q: What about the “Morningglory plant response rating” value [13, 20] of the same compound?
A: 1

Q: What about the “Morningglory plant response rating” value [13, 21] of the same compound?
A: 2

Q: And the “Morningglory plant response rating” value [13, 22]?
A: 0

Q: And the “Plant response rating (0 to 10; 0 is no effect, 10 is complete control), Morningglory” value ([13]; Rate 250 g/ha, Postemergence)?
A: 3

Q: And the “Morningglory plant response rating” value [13, 23]?
A: 4

Q: What about the “S. Flatsedge plant response rating” value [14, 24] of the same compound?
A: 0

Q: And the “S. Flatsedge plant response rating” value [14, 25]?
A: 0

Q: And the “S. Flatsedge plant response rating” value [14, 26]?
A: 0

Q: And the “S. Flatsedge plant response rating” value [14, 27]?
A: 0

Q: And the “Giant foxtail plant response rating” value [15, 17]?
A: 0

Q: And the “Giant foxtail plant response rating” value [15, 18]?
A: 3

Q: And the “Plant response rating, Giant foxtail” value [15, 19]?
A: 8

Q: And the “Giant foxtail plant response rating” value [15, 20]?
A: 0

Q: And the “Giant foxtail plant response rating” value [15, 21]?
A: 0

Q: What about the “Giant foxtail plant response rating” value [15, 22] of the same compound?
A: 0

Q: What about the “Plant response rating (0 to 10; 0 is no effect, 10 is complete control), Giant foxtail” value ([15]; Rate 250 g/ha, Postemergence) of the same compound?
A: 0

Q: And the “Giant foxtail plant response rating” value [15, 23]?
A: 0

Q: And the “Velvetleaf plant response rating” value [16, 17]?
A: 0

Q: What about the “Velvetleaf plant response rating” value [16, 18] of the same compound?
A: 0

Q: What about the “Plant response rating, Velvetleaf” value [16, 19] of the same compound?
A: 0

Q: And the “Velvetleaf plant response rating” value [16, 20]?
A: 0

Q: What about the “Velvetleaf plant response rating” value [16, 21] of the same compound?
A: 0

Q: And the “Velvetleaf plant response rating” value [16, 22]?
A: 0

Q: What about the “Plant response rating (0 to 10; 0 is no effect, 10 is complete control), Velvetleaf” value ([16]; Rate 250 g/ha, Postemergence) of the same compound?
A: 0

Q: And the “Velvetleaf plant response rating” value [16, 23]?
A: 0

— patent publication US6737383B1, “Herbicidal oxadiazolidines” (priority 1999, dated 2004)
